Reference: PMC5612656, “In vitro and in vivo effects of 2,4 diaminoquinazoline inhibitors of the decapping scavenger enzyme DcpS: Context-specific modulation of SMN transcript levels” (PLoS ONE, 2017)

Test system: spinal cord transcriptome
Assay: RNA-Seq of spinal cord tissue from 2B/- and 2B/+ mice
Type: in vivo, mouse
[1] = spinal cord, 2B/- RG3039 vs 2B/- vehicle, adjusted p-value 2.55E-55

Nc1nc(N)c2c(OCC3CCN(Cc4c(Cl)cccc4Cl)CC3)cccc2n1 [RG3039]
log2(fold-change) (2B-Veh vs 2B-RG3039, gene Osbpl3): 0.3051 | log2(fold-change) (2B-Veh vs 2B-RG3039, gene Phf13): 0.2527 | log2(fold-change) (2B-Veh vs 2B-RG3039, gene Pigz): -0.3408 | log2(fold-change) (2B-Veh vs 2B-RG3039, gene Pik3r1): -0.2417 | log2(fold-change) (2B-Veh vs 2B-RG3039, gene Plcb1): -0.2064 | log2(fold-change) (2B-Veh vs 2B-RG3039, gene Pld2): 0.3673 | log2(fold-change) (2B-Veh vs 2B-RG3039, gene Prr18): -0.2462 | log2(fold-change) (2B-Veh vs 2B-RG3039, gene Ptbp1): 0.3576 | log2(fold-change) (2B-Veh vs 2B-RG3039, gene Ptpdc1): -0.3585 | log2(fold-change) (2B-Veh vs 2B-RG3039, gene Pvrl3): 0.3266 | log2(fold-change) (2B-Veh vs 2B-RG3039, gene Rab31): -0.2849 | log2(fold-change) (2B-Veh vs 2B-RG3039, gene Ralb): 0.1805 | log2(fold-change) (2B-Veh vs 2B-RG3039, gene Rapgef3): -0.3391 | log2(fold-change) (2B-Veh vs 2B-RG3039, gene Rasal1): -0.2345 | log2(fold-change) (2B-Veh vs 2B-RG3039, gene Rgs19): 0.2532 | log2(fold-change) (2B-Veh vs 2B-RG3039, gene Serpina3n): -0.2457 | log2(fold-change) (2B-Veh vs 2B-RG3039, gene Sh3pxd2a): 0.3024 | log2(fold-change) (2B-Veh vs 2B-RG3039, gene Slc39a11): 0.2556 | log2(fold-change) (2B-Veh vs 2B-RG3039, gene Sox13): 0.3712 | log2(fold-change) (2B-Veh vs 2B-RG3039, gene Spon1): -0.207 | log2(fold-change) (2B-Veh vs 2B-RG3039, gene Srsf9): 0.255 | log2(fold-change) (2B-Veh vs 2B-RG3039, gene Stxbp3a): -0.2437 | log2(fold-change) (2B-Veh vs 2B-RG3039, gene Swap70): 0.2496 | log2(fold-change) (2B-Veh vs 2B-RG3039, gene Tfrc): 0.316 | log2(fold-change) (2B-Veh vs 2B-RG3039, gene Tlcd1): 0.158 | log2(fold-change) (2B-Veh vs 2B-RG3039, gene Tmod1): -0.2447 | log2(fold-change) (2B-Veh vs 2B-RG3039, gene Tubb2b): 0.2818 | log2(fold-change) (2B-Veh vs 2B-RG3039, gene Vgf): 0.2475 | log2(fold-change) (2B-Veh vs 2B-RG3039, gene Vps37b): 0.2543 | log2(fold-change) (2B-Veh vs 2B-RG3039, gene Wbscr27): -0.2613 | log2(fold-change) (2B-Veh vs 2B-RG3039, gene Wnt7b): 0.3209 | log2(fold-change) (2B-Veh vs 2B-RG3039, gene Zfp276): -0.2722 | log2(fold-change) (2B-Veh vs 2B-RG3039, gene Zfp692): -0.2503 | log2(fold-change) (2B-Veh vs 2B-RG3039, gene Zfp839): -0.2535 | log2(fold-change) (2B-Veh vs 2B-RG3039, gene Zhx3): -0.2128 | log2(fold-change) (2B-Veh vs 2B-RG3039, gene Zmat1): -0.3673 | log2(fold-change) (mouse, in vivo): 0.2853 | log2(fold-change) Chodl transcript (spinal cord RNA-Seq, 2B- RG vs. 2B+ Veh (sheet WT-Veh_vs_2B-859_all), adjusted p-value 1.03E-56): -2.122 | log2(fold-change) 4632404H12Rik transcript (spinal cord RNA-Seq, 2B- RG vs. 2B+ Veh (sheet WT-Veh_vs_2B-859_all), adjusted p-value 1.30E-36): 1.504 | log2(fold-change) Spp1 transcript (spinal cord RNA-Seq, 2B- RG vs. 2B+ Veh (sheet WT-Veh_vs_2B-859_all), adjusted p-value 1.87E-42): -1.107 | log2(fold-change) Gm26924 transcript (spinal cord RNA-Seq, 2B- RG vs. 2B+ Veh (sheet WT-Veh_vs_2B-859_all), adjusted p-value 5.93E-43): -1.355 | log2(fold-change) Ahnak2 transcript (spinal cord RNA-Seq, 2B- RG vs. 2B+ Veh (sheet WT-Veh_vs_2B-859_all), adjusted p-value 8.66E-40): -1.26 | log2(fold-change) Tgtp1 transcript (spinal cord RNA-Seq, RG3039 2B/- vs. vehicle 2B/-, adjusted p-value 0.000273937): 1.848 | log2(fold-change) Cfd transcript (spinal cord RNA-Seq, RG3039 2B/- vs. vehicle 2B/-, adjusted p-value 0.000300401): -2.755 | log2(fold-change) Kcnb2 transcript (spinal cord RNA-Seq, RG3039 2B/- vs. vehicle 2B/-, adjusted p-value 0.000330855): 1.602 | log2(fold-change) Fabp4 transcript (spinal cord RNA-Seq, RG3039 2B/- vs. vehicle 2B/-, adjusted p-value 0.000349974): -2.327 | log2(fold-change) Reg3b transcript (spinal cord RNA-Seq, RG3039 2B/- vs. vehicle 2B/-, adjusted p-value 0.00104281): 1.9386 | log2(fold-change) Saa3 transcript (spinal cord RNA-Seq, RG3039 2B/- vs. vehicle 2B/-, adjusted p-value 0.0020931): -2.03 | log2(fold-change) Tgtp2 transcript (spinal cord RNA-Seq, RG3039 2B/- vs. vehicle 2B/-, adjusted p-value 0.00223451): 1.688 | log2(fold-change) Slfn10-ps transcript (spinal cord RNA-Seq, RG3039 2B/- vs. vehicle 2B/-, adjusted p-value 0.00233365): 1.807 | log2(fold-change) Gm10629 transcript (spinal cord RNA-Seq, RG3039 2B/- vs. vehicle 2B/-, adjusted p-value 0.00341009): 1.585 | log2(fold-change) Myh4 transcript (spinal cord RNA-Seq, RG3039 2B/- vs. vehicle 2B/-, adjusted p-value 0.0039906): -2.1375 | log2(fold-change) Amtn transcript (spinal cord RNA-Seq, RG3039 2B/- vs. vehicle 2B/-, adjusted p-value 0.00445577): 1.585 | log2(fold-change) Gm21807 transcript (spinal cord RNA-Seq, RG3039 2B/- vs. vehicle 2B/-, adjusted p-value 0.00737848): 1.663 | log2(fold-change) Ak3l2-ps transcript (spinal cord RNA-Seq, RG3039 2B/- vs. vehicle 2B/-, adjusted p-value 0.0076012): 1.688 | log2(fold-change) Gm25014 transcript (spinal cord RNA-Seq, RG3039 2B/- vs. vehicle 2B/-, adjusted p-value 0.00761921): 1.585 | log2(fold-change) Mrgprd transcript (spinal cord RNA-Seq, RG3039 2B/- vs. vehicle 2B/-, adjusted p-value 0.0177741): 1.807 | log2(fold-change) Ucp1 transcript (spinal cord RNA-Seq, RG3039 2B/- vs. vehicle 2B/-, adjusted p-value 0.0259172): -1.858 | log2(fold-change) Scn10a transcript (spinal cord RNA-Seq, RG3039 2B/- vs. vehicle 2B/-, adjusted p-value 0.0498434): 1.7 | log2(fold-change) 4930481A15Rik transcript (spinal cord RNA-Seq, RG3039 2B/- vs. vehicle 2B/-, adjusted p-value 1.16E-05): -2.273 | log2(fold-change) Gm13558 transcript (spinal cord RNA-Seq, RG3039 2B/- vs. vehicle 2B/-, adjusted p-value 1.21E-05): -2 | log2(fold-change) Itga2 transcript (spinal cord RNA-Seq, RG3039 2B/- vs. vehicle 2B/-, adjusted p-value 1.25E-05): 1.883 | log2(fold-change) Ifi44 transcript (spinal cord RNA-Seq, RG3039 2B/- vs. vehicle 2B/-, adjusted p-value 1.41E-22): 2.678 | log2(fold-change) Etnppl transcript (spinal cord RNA-Seq, RG3039 2B/- vs. vehicle 2B/-, adjusted p-value 2.00E-23): -2.764 | log2(fold-change) Ada transcript (spinal cord RNA-Seq, RG3039 2B/- vs. vehicle 2B/-, adjusted p-value 2.62E-17): -2.097 | log2(fold-change) Sgk1 transcript (spinal cord RNA-Seq, RG3039 2B/- vs. vehicle 2B/-, adjusted p-value 2.77E-28): -1.812 | log2(fold-change) Dpep1 transcript (spinal cord RNA-Seq, RG3039 2B/- vs. vehicle 2B/-, adjusted p-value 3.30E-07): -2.385 | log2(fold-change) Tmem52 transcript (spinal cord RNA-Seq, RG3039 2B/- vs. vehicle 2B/-, adjusted p-value 3.37E-32): -2.209 | log2(fold-change) A830073O21Rik transcript (spinal cord RNA-Seq, RG3039 2B/- vs. vehicle 2B/-, adjusted p-value 3.74E-09): 1.69 | log2(fold-change) Usp18 transcript (spinal cord RNA-Seq, RG3039 2B/- vs. vehicle 2B/-, adjusted p-value 4.16E-13): 1.709 | log2(fold-change) Slc10a6 transcript (spinal cord RNA-Seq, RG3039 2B/- vs. vehicle 2B/-, adjusted p-value 4.39E-06): -2.443 | log2(fold-change) Oas1a transcript (spinal cord RNA-Seq, RG3039 2B/- vs. vehicle 2B/-, adjusted p-value 4.66E-07): 1.712 | log2(fold-change) Plin4 transcript (spinal cord RNA-Seq, RG3039 2B/- vs. vehicle 2B/-, adjusted p-value 4.90E-27): -3.356 | log2(fold-change) Map3k6 transcript (spinal cord RNA-Seq, RG3039 2B/- vs. vehicle 2B/-, adjusted p-value 5.02E-31): -2.942 | log2(fold-change) 8430408G22Rik transcript (spinal cord RNA-Seq, RG3039 2B/- vs. vehicle 2B/-, adjusted p-value 5.30E-09): -1.92 | log2(fold-change) Fmo2 transcript (spinal cord RNA-Seq, RG3039 2B/- vs. vehicle 2B/-, adjusted p-value 6.18E-07): -2.118 | log2(fold-change) Tmem82 transcript (spinal cord RNA-Seq, RG3039 2B/- vs. vehicle 2B/-, adjusted p-value 7.17E-13): -2.075 | log2(fold-change) Sds transcript (spinal cord RNA-Seq, RG3039 2B/- vs. vehicle 2B/-, adjusted p-value 7.23E-13): -2.356 | log2(fold-change) Gp2 transcript (spinal cord RNA-Seq, RG3039 2B/- vs. vehicle 2B/-, adjusted p-value 7.46E-06): 1.536 | log2(fold-change) Gm11827 transcript (spinal cord RNA-Seq, RG3039 2B/- vs. vehicle 2B/-, adjusted p-value 7.82E-08): -2.193 | log2(fold-change) Chml transcript (spinal cord RNA-Seq, RG3039 2B/- vs. vehicle 2B/-, adjusted p-value 8.74E-18): 1.585 | log2(fold-change) Gm15622 transcript (spinal cord RNA-Seq, RG3039 2B/- vs. vehicle 2B/-, adjusted p-value 9.01E-05): 2.027 | share of detectable genes modulated (spinal cord, 2B/+ control mice): less than 0.5% | log2(fold-change), gene Mt1 (spinal cord, 2B/- RG3039 vs 2B/- vehicle, adjusted p-value 1.29E-57): -1.302 | log2(fold-change), gene Polr3e (spinal cord, 2B/- RG3039 vs 2B/- vehicle, adjusted p-value 1.67E-54): -1.443 | log2(fold-change), gene Fam107a [1]: -1.657 | log2(fold-change), gene Fkbp5 [1]: -1.583 | log2(fold-change), gene Mt2 (spinal cord, 2B/- RG3039 vs 2B/- vehicle, adjusted p-value 2.67E-76): -1.696 | Smn transcripts as detected by RNA-Seq (spinal cord, 2B/- SMA mice): did not appear to increase Smn transcripts | share of the measurable genes with altered expression (spinal cord, 2B/- SMA mice RG3039 vs vehicle): approximately 26.8% | genes with significantly (P < 0.05) altered expression (spinal cord, 2B/- SMA mice RG3039 vs vehicle-treated 2B/-): 5,497 genes | genes affected in opposite directions by disease and by compound treatment (spinal cord, 2B/- mice): 591 genes | ZPR1 expression in whole spinal cord by RNA-seq (vehicle vs RG3039 treated SMA mice): no difference in ZPR1 expression
